Test results taken from patent US20250222146A1, “Radiopharmaceuticals Targeting Somatostatin Receptor 2 and Uses Thereof” (RayzeBio, Inc., priority 2023, published 2025).
Numbered stars: 1 amine (or outer) side, 2 acyl side, 3 side chain; on linkers, the order of the positions; unused ones are H or OH. Square brackets hold non-standard residues; d marks the D form. Peptide text beside a SMILES is read from it. * marks the point of attachment. DOTA(Lu)NH(CH2)6NHCOCH2 = O=C(CN1CCN2CCN3CCN(CC1)CC(=O)[O][Lu]([O]C(=O)C2)[O]C(=O)C3)NCCCCCCNC(=O)C*; X6 = O=C(CN1CCN2CCN3CCN(CC1)CC(=O)[O][Lu]([O]C(=O)C2)[O]C(=O)C3)NCCOCCOCCOCCNC(=O)C*; DOTA(Lu) = O=C1CN2CCN3CCN(CC(=O)*)CCN(CC2)CC(=O)[O][Lu]([O]1)[O]C(=O)C3; Ala(piperidin-4-yl) = O=C([C@H](CC1CCN([*:3])CC1)N[*:1])[*:2]; dTrp(βS-Me) = C[C@@H](c1c[nH]c2ccccc12)[C@@H](N)C(=O)O; Tyr(3,5-F2) = N[C@@H](Cc1cc(F)c(O)c(F)c1)C(=O)O; dNMeW = CN[C@H](Cc1c[nH]c2ccccc12)C(=O)O; Dip = N[C@H](C(=O)O)C(c1ccccc1)c1ccccc1; NMehCys = CN[C@@H](CCS)C(=O)O; NMeK = CN[C@@H](CCCCN)C(=O)O

Target: SSTR2 (Homo sapiens, UniProt P30874)
Assay: SSTR binding affinity by radioligand binding competition assay ([125I]-Tyr11-Somatostatin, membrane extracts)
Settings: SSTR2 Ki, radioligand competition, [125I]-Tyr11-Somatostatin 0.1 nM, membrane extracts; Ki from IC50 by Cheng Prusoff

Chain of SSTR2 (P30874 whole entry): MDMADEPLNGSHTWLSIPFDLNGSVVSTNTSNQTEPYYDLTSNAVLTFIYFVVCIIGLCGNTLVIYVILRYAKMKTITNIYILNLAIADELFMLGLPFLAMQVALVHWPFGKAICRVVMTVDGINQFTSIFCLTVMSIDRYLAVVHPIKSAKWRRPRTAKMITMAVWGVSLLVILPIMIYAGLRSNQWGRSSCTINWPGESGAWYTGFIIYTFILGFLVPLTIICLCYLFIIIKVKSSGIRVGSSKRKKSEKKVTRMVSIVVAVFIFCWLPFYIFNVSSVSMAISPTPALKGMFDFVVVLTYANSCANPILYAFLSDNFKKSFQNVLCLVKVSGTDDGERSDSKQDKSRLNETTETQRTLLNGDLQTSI

Q: Which Ki does the source give for `C[C@@H](O)[C@@H]1NC(=O)[C@@H](CCCCN)NC(=O)[C@@H](Cc2c[nH]c3ccccc23)NC(=O)[C@H](Cc2ccc(O)cc2)NC(=O)[C@H](CCSCC(=O)NCCCCCCNC(=O)CN2CCN3CCN4CCN(CC2)CC(=O)[O][Lu]([O]C(=O)C3)[O]C(=O)C4)N(C)C(=O)[C@H](Cc2ccccc2)NC1=O` [RB-0005827] here?
A: 10 to 33.3 nM

Same assay, conditions: radioligand competition, [125I]-Tyr11-Somatostatin 0.1 nM, membrane extracts; Ki from IC50 by Cheng Prusoff; read-out: SSTR2 Ki

Q: For `CC(C)[C@@H]1NC(=O)[C@H](CCCCN)NC(=O)[C@@H](Cc2c[nH]c3ccccc23)NC(=O)[C@H](Cc2ccc(O)cc2)NC(=O)[C@H](CCSCC(=O)NCCCCCCNC(=O)CN2CCN3CCN4CCN(CC2)CC(=O)[O][Lu]([O]C(=O)C3)[O]C(=O)C4)N(C)C(=O)[C@H](CO)NC1=O` [RB-0005270] (cyclo(KVS[NMehCys](DOTA(Lu)NH(CH2)6NHCOCH2)Y[dW])), which Ki is on record?
A: < 1 nM

Q: With `C[C@@H](O)[C@@H]1NC(=O)[C@H](CCCCN)NC(=O)[C@@H](Cc2c[nH]c3ccccc23)NC(=O)[C@H](Cc2ccc(O)cc2)NC(=O)[C@H](CCSCC(=O)NCCOCCOCCNC(=O)CN2CCN3CCN4CCN(CC2)CC(=O)[O][Lu]([O]C(=O)C3)[O]C(=O)C4)N(C)C(=O)[C@H](Cc2ccccc2)NC1=O` [RB-0005272] as the compound, how does the Ki read?
A: < 1 nM

Q: `C[C@@H](O)[C@@H]1NC(=O)[C@H](CCCCN)NC(=O)[C@@H](Cc2c[nH]c3ccccc23)NC(=O)[C@H](Cc2ccc(O)cc2)NC(=O)[C@H](CCSCC(=O)NCCCCCCNC(=O)CCC(C(=O)O)N2CCN3CCN4CCN(CC2)CC(=O)[O][Lu]([O]C(=O)C4)[O]C(=O)C3)N(C)C(=O)[C@H](Cc2ccccc2)NC1=O` (stereo partly drawn) [RB-0005274] was tested. Which Ki did it give?
A: < 1 nM

Q: Which Ki does the source give for `C[C@@H](O)[C@@H]1NC(=O)[C@H](CCCCN)NC(=O)[C@@H](Cc2c[nH]c3ccccc23)NC(=O)[C@H](Cc2ccc(O)cc2)NC(=O)[C@H](CCSCC(=O)N[C@H](CCCCNC(=O)CN2CCN3CCN4CCN(CC2)CC(=O)[O][Lu]([O]C(=O)C3)[O]C(=O)C4)C(=O)O)N(C)C(=O)[C@H](Cc2ccccc2)NC1=O` [RB-0005276] here?
A: 1 to 3.33 nM

Q: How did the Ki turn out when `C[C@@H](O)[C@@H]1NC(=O)[C@H](CCCCN)NC(=O)[C@@H](Cc2c[nH]c3ccccc23)NC(=O)[C@H](Cc2ccc(O)cc2)NC(=O)[C@H](CCSCC(=O)NCCCC[C@@H](NC(=O)CN2CCN3CCN4CCN(CC2)CC(=O)[O][Lu]([O]C(=O)C3)[O]C(=O)C4)C(=O)O)N(C)C(=O)[C@H](Cc2ccccc2)NC1=O` [RB-0005278] was run?
A: 1 to 3.33 nM

Q: `C[C@@H](O)[C@@H]1NC(=O)[C@H](CCCCN)NC(=O)[C@@H](Cc2c[nH]c3ccccc23)NC(=O)[C@H](Cc2ccc(O)cc2)NC(=O)[C@H](CCSCC(=O)NCCOCCOCCOCCNC(=O)CN2CCN3CCN4CCN(CC2)CC(=O)[O][Lu]([O]C(=O)C3)[O]C(=O)C4)N(C)C(=O)[C@H](Cc2ccccc2)NC1=O` [RB-0005284] was tested. Which Ki did it give?
A: < 1 nM

Q: `C[C@@H](O)[C@@H]1NC(=O)[C@H](CCCCN)NC(=O)[C@@H](Cc2c[nH]c3ccccc23)NC(=O)[C@H](Cc2ccc(O)cc2)NC(=O)[C@H](CCSCC(=O)NCCOCCOCCOCCNC(=O)CN2CCN3CCN4CCN(CC2)CC(=O)[O][Lu]([O]C(=O)C3)[O]C(=O)C4)N(C)C(=O)CNC1=O` [RB-0005286] (cyclo(G[NMehCys](X6)Y[dW]KT)) was tested. Which Ki did it give?
A: 10 to 33.3 nM

Q: How did the Ki turn out when `C[C@@H](O)[C@@H]1NC(=O)[C@H](CCCCN)NC(=O)[C@@H](Cc2c[nH]c3ccccc23)N(C)C(=O)[C@H](Cc2ccc(O)cc2)NC(=O)[C@H](CCSCC(=O)NCCCCCCNC(=O)CN2CCN3CCN4CCN(CC2)CC(=O)[O][Lu]([O]C(=O)C3)[O]C(=O)C4)N(C)C(=O)[C@H](Cc2ccccc2)NC1=O` [RB-0005330] (cyclo(F[NMehCys](DOTA(Lu)NH(CH2)6NHCOCH2)Y[dNMeW]KT)) was run?
A: < 1 nM

Q: `C[C@@H](O)[C@@H]1NC(=O)[C@H](CCCCN)NC(=O)[C@@H](Cc2c[nH]c3ccccc23)NC(=O)CNC(=O)[C@H](CCSCC(=O)NCCCCCCNC(=O)CN2CCN3CCN4CCN(CC2)CC(=O)[O][Lu]([O]C(=O)C3)[O]C(=O)C4)N(C)C(=O)[C@H](Cc2ccccc2)NC1=O` [RB-0005694] (cyclo(F[NMehCys](DOTA(Lu)NH(CH2)6NHCOCH2)G[dW]KT)) was tested. Which Ki did it give?
A: 1 to 3.33 nM

Q: For `C[C@@H]1NC(=O)[C@H](CCSCC(=O)NCCCCCCNC(=O)CN2CCN3CCN4CCN(CC2)CC(=O)[O][Lu]([O]C(=O)C3)[O]C(=O)C4)N(C)C(=O)[C@H](Cc2ccccc2)NC(=O)[C@H]([C@@H](C)O)NC(=O)[C@H](CCCCN)NC(=O)[C@@H](Cc2c[nH]c3ccccc23)NC1=O` [RB-0005696] (cyclo(A[dW]KTF[NMehCys](DOTA(Lu)NH(CH2)6NHCOCH2))), which Ki is on record?
A: 10 to 33.3 nM

Q: For `C[C@@H](O)[C@@H]1NC(=O)[C@H](CCCCN)NC(=O)[C@@H](Cc2c[nH]c3ccccc23)NC(=O)[C@H](Cc2ccc(O)cc2)NC(=O)[C@H](CCNC(=O)CCCCCNC(=O)CN2CCN3CCN4CCN(CC2)CC(=O)[O][Lu]([O]C(=O)C3)[O]C(=O)C4)N(C)C(=O)[C@H](Cc2ccccc2)NC1=O` [RB-0005717], which Ki is on record?
A: 10 to 33.3 nM

Q: How did the Ki turn out when `C[C@@H](O)[C@@H]1NC(=O)[C@H](CCCCN)NC(=O)[C@@H](Cc2c[nH]c3ccccc23)NC(=O)[C@H](Cc2ccc(O)cc2)NC(=O)[C@H](CNC(=O)CCCCCNC(=O)CN2CCN3CCN4CCN(CC2)CC(=O)[O][Lu]([O]C(=O)C3)[O]C(=O)C4)N(C)C(=O)[C@H](Cc2ccccc2)NC1=O` [RB-0005728] was run?
A: 3.33 to 10 nM

Q: For `C[C@@H](O)[C@@H]1NC(=O)[C@H](CCCCN)NC(=O)[C@@H](Cc2c[nH]c3ccccc23)NC(=O)[C@H](Cc2ccc(O)cc2)NC(=O)[C@H](CNC(=O)[C@H](CC(=O)O)NC(=O)CCCCCNC(=O)CN2CCN3CCN4CCN(CC2)CC(=O)[O][Lu]([O]C(=O)C3)[O]C(=O)C4)N(C)C(=O)[C@H](Cc2ccccc2)NC1=O` [RB-0005730], which Ki is on record?
A: < 1 nM

Q: For `C[C@@H](O)[C@@H]1NC(=O)[C@H](CCCCN)NC(=O)[C@@H](Cc2c[nH]c3ccccc23)NC(=O)[C@H](Cc2ccc(O)cc2)NC(=O)[C@H](CNC(=O)C[C@H](NC(=O)CCCCCNC(=O)CN2CCN3CCN4CCN(CC2)CC(=O)[O][Lu]([O]C(=O)C3)[O]C(=O)C4)C(=O)O)N(C)C(=O)[C@H](Cc2ccccc2)NC1=O` [RB-0005732], which Ki is on record?
A: 33.3 to 100 nM

Q: How did the Ki turn out when `C[C@@H](O)[C@@H]1NC(=O)[C@H](CCCCN)NC(=O)[C@@H](Cc2c[nH]c3ccccc23)NC(=O)[C@H](Cc2ccc(O)cc2)NC(=O)[C@H](CNC(=O)[C@@H](CC(=O)O)NC(=O)CCCCCNC(=O)CN2CCN3CCN4CCN(CC2)CC(=O)[O][Lu]([O]C(=O)C3)[O]C(=O)C4)N(C)C(=O)[C@H](Cc2ccccc2)NC1=O` [RB-0005734] was run?
A: 1 to 3.33 nM

Q: `C[C@@H](O)[C@@H]1NC(=O)[C@H](CCCCN)NC(=O)[C@@H](Cc2c[nH]c3ccccc23)NC(=O)[C@H](Cc2ccc(O)cc2)NC(=O)[C@H](CNC(=O)C[C@@H](NC(=O)CCCCCNC(=O)CN2CCN3CCN4CCN(CC2)CC(=O)[O][Lu]([O]C(=O)C3)[O]C(=O)C4)C(=O)O)N(C)C(=O)[C@H](Cc2ccccc2)NC1=O` [RB-0005736] was tested. Which Ki did it give?
A: 3.33 to 10 nM

Q: With `C[C@@H](O)[C@@H]1NC(=O)[C@H](CCCCN)NC(=O)[C@@H](Cc2c[nH]c3ccccc23)NC(=O)[C@H](Cc2ccc(O)cc2)NC(=O)[C@H](CCSCC(=O)NCCOCCOCCOCCNC(=O)CN2CCN3CCN4CCN(CC2)CC(=O)[O][Lu]([O]C(=O)C3)[O]C(=O)C4)N(C)C(=O)[C@H](COc2ccccc2)NC1=O` [RB-0005738] as the compound, how does the Ki read?
A: < 1 nM

Q: For `C[C@@H](O)[C@@H]1NC(=O)[C@H](CCCCN)NC(=O)[C@@H](Cc2c[nH]c3ccccc23)NC(=O)[C@H](Cc2cc(F)c(O)c(F)c2)NC(=O)[C@H](CCSCC(=O)NCCCCCCNC(=O)CN2CCN3CCN4CCN(CC2)CC(=O)[O][Lu]([O]C(=O)C3)[O]C(=O)C4)N(C)C(=O)[C@H](Cc2ccccc2)NC1=O` [RB-0005740] (cyclo(F[NMehCys](DOTA(Lu)NH(CH2)6NHCOCH2)[Tyr(3,5-F2)][dW]KT)), which Ki is on record?
A: < 1 nM

Q: `C[C@@H]1NC(=O)[C@H](CCCCN)NC(=O)[C@@H](Cc2c[nH]c3ccccc23)NC(=O)[C@H](Cc2ccc(O)cc2)NC(=O)[C@H](CCSCC(=O)NCCCCCCNC(=O)CN2CCN3CCN4CCN(CC2)CC(=O)[O][Lu]([O]C(=O)C3)[O]C(=O)C4)N(C)C(=O)[C@H](Cc2ccccc2)NC1=O` [RB-0005744] (cyclo(AF[NMehCys](DOTA(Lu)NH(CH2)6NHCOCH2)Y[dW]K)) was tested. Which Ki did it give?
A: < 1 nM

Q: With `C[C@@H](O)[C@@H]1NC(=O)[C@H](CC2CCNCC2)NC(=O)[C@@H]([C@@H](C)c2c[nH]c3ccccc23)NC(=O)[C@H](Cc2ccc(O)cc2)NC(=O)[C@H](CCCCNC(=O)CN2CCN3CCN4CCN(CC2)CC(=O)[O][Lu]([O]C(=O)C3)[O]C(=O)C4)N(C)C(=O)[C@H](Cc2ccccc2)NC1=O` [RB-0005797] (cyclo(F[NMeK](DOTA(Lu))Y[dTrp(βS-Me)][Ala(piperidin-4-yl)]T)) as the compound, how does the Ki read?
A: < 1 nM

Q: For `C[C@@H]1NC(=O)[C@H]([C@@H](C)O)NC(=O)[C@H](CC2CCNCC2)NC(=O)[C@@H]([C@@H](C)c2c[nH]c3ccccc23)NC(=O)[C@H](Cc2ccc(O)cc2)NC(=O)[C@H](CCSCC(=O)NCCCCCCNC(=O)CN2CCN3CCN4CCN(CC2)CC(=O)[O][Lu]([O]C(=O)C3)[O]C(=O)C4)N(C)C1=O` [RB-0005807] (cyclo(A[NMehCys](DOTA(Lu)NH(CH2)6NHCOCH2)Y[dTrp(βS-Me)][Ala(piperidin-4-yl)]T)), which Ki is on record?
A: < 1 nM

Q: With `C[C@@H]1NC(=O)[C@H]([C@@H](C)O)NC(=O)[C@H](CC2CCNCC2)NC(=O)[C@@H](Cc2c[nH]c3ccccc23)NC(=O)[C@H](C(c2ccccc2)c2ccccc2)NC(=O)[C@H](CCSCC(=O)NCCCCCCNC(=O)CN2CCN3CCN4CCN(CC2)CC(=O)[O][Lu]([O]C(=O)C3)[O]C(=O)C4)N(C)C1=O` [RB-0005809] (cyclo(A[NMehCys](DOTA(Lu)NH(CH2)6NHCOCH2)[Dip][dW][Ala(piperidin-4-yl)]T)) as the compound, how does the Ki read?
A: 1 to 3.33 nM

Q: `C[C@@H](O)[C@@H]1NC(=O)[C@H](CCCCN)NC(=O)[C@@H](Cc2c[nH]c3ccccc23)NC(=O)[C@H](Cc2ccc(O)cc2)NC(=O)[C@H](C2CCN(C(=O)CCCCCNC(=O)CN3CCN4CCN5CCN(CC3)CC(=O)[O][Lu]([O]C(=O)C4)[O]C(=O)C5)CC2)N(C)C(=O)[C@H](Cc2ccccc2)NC1=O` [RB-0005852] was tested. Which Ki did it give?
A: 33.3 to 100 nM
